System: rats
Test: Open field (OF) test in rats, locomotor/exploratory activity
Type: in vivo, rat
Details: 5-min session, mean ± SEM
Method: All drugs were dissolved in distilled water immediately before administration in a volume of 2 mL/kg. All the compounds were administered intraperitoneally (i.p.). […] Control animals received vehicle according to the same schedule.
The experiment was performed using Motor Monitor System (Campden Instruments, Ltd., UK) consisted of two SmartFrame Open Field stations (40 × 40 × 38 cm) with 16 × 16 beams, located in sound attenuating chambers and connected to PC software by control chassis. Individual vehicle- or drug-injected animals were gently placed in the center of the station. An automated motor monitor system recorded ambulation (the number of crossings in X and Y axis), the number of rearing episodes, and total distance covered by a rat for 5 min.
The data of behavioral studies were evaluated using two-way analysis of variance (ANOVA) followed by Bonferroni’s post hoc test, p < 0.05 was considered significant.

[1] = 10 mg/kg i.p. (s-citalopram 30 min, moclobemide and bupropion 60 min before test)
[2] = 15 mg/kg i.p. 30 min before test

Compound	Exploratory activity Ambulation X [1]	Exploratory activity Ambulation Y [1]	Exploratory activity Rearings [1]	Exploratory activity Total distance (cm) [1] [cm]	Exploratory activity Ambulation Y [2]	Exploratory activity Rearings [2]	Exploratory activity Total distance (cm) [2] [cm]
CC(NC(C)(C)C)C(=O)c1cccc(Cl)c1 (centres unmarked) [bupropion]	284 ± 31	301 ± 35	83 ± 9	3083 ± 229	–	–	–
O=C(NCCN1CCOCC1)c1ccc(Cl)cc1 [moclobemide]	200 ± 26	192 ± 23	62 ± 3	2160 ± 183	–	–	–
CN(C)CCCN1c2ccccc2CCc2ccccc21 [imipramine]	–	–	–	–	203 ± 41	54 ± 3	2212 ± 332
CN(C)CCC[C@@]1(c2ccc(F)cc2)OCc2cc(C#N)ccc21 [s-citalopram]	197 ± 15	179 ± 19	64 ± 12	–	–	–	–
